What all share (type): cell-based
Assay [1] has as its system Saccharomyces cerevisiae wild type strain BY4743. Briefly: AF1 yeast gene expression analysis (microarray, KEGG pathway mapping). The note with it: for # Transcripts perturbed by treatment: 2×MIC, two hours; for Number of Pathways Affected by at Least One Gene, # Pathways: p < 0.05, KEGG mapping. Here is the method:
Saccharomyces cerevisiae wild type strain BY4743 was purchased from American Type Culture Center (ATCC, Manassas, Va.). The yeast strain was grown in YPD or SD media. H. […] The cultures started from fresh single colonies were grown in 1.0 ml YPD overnight at 30° C. […] The OD600 was adjusted to 1.0 with YPD media, then 2.0 ml of each was inoculated into three 250 ml flasks, each containing 50 ml of SD media. […] The cells were kept growing for another two hours, then collected by centrifugation at 4000 rpm for 5 minutes at 4° C. Pellets were washed once with ice-cold water, then were lyophilized overnight at 4° C. […] Tubes were vortexed for 30 seconds, then incubated for 10 minutes at room temperature (RT). […] Tubes were incubated for 10 minutes at RT. Samples were centrifuged for 20 minutes as before. Pellets were washed with 400 μl 70% ethanol and centrifuged for 10 minutes as before. The pellet was then dissolved in 100 μl nuclease-free water. RNA quality was determined using the Bioanalyzer 2100 and the RNA 6000 assay (Agilent Technologies, Palo Alto, Calif.) according to manufacturer's instructions. RNA concentrations were determined spectrophotometrically by measuring the absorption at 260 nm in an Ultrospec 2000 (Pharmacia Biotech, Piscataway, N.J.). […] Labeled cRNAs were evaluated using the RNA 6000 assay on the Agilent Bioanalyzer 2100. Labeled cRNA concentrations were determined spectrophotometrically by measuring the absorption at 260 nm in an Ultrospec 2000 (Pharmacia Biotech, Piscataway, N.J.). […] Each pair of samples to be hybridized were independently labeled and hybridized utilizing a fluor reversal for a total of two hybridizations per sample pair. The microarrays were scanned simultaneously in the Cy3 and Cy5 channels with Agilent's 48-slide, Dual Laser DNA Microarray Scanner (Agilent Technologies, Palo Alto, Calif.) at 10 μm resolution using default settings. Image Analysis Software (Version A.4.0.45, Agilent Technologies, Palo Alto, Calif.) was used for image analysis. Each feature was determined from an array's associated pattern file and a detection algorithm. Intensity values for each feature were determined after subtracting background derived from an average of negative control features. Features with unusual pixel intensity statistics (e.g., high non-uniformity, saturation in either channel, and the like) were excluded from downstream analyses. Data was loaded into the Rosetta RESOLVER database (Rosetta Inpharmatics Inc., Kirkland, Wash.) for storage and analysis. Data was evaluated after combining results from fluor reversal replicate hybridizations. The annotation of yeast ORFs was obtained from Proteome BIOKNOWLEDGE Library (Incyte Genomics, Palo Alto, Calif.). In AF1, two different technologies were utilized: gene expression analysis (for examination of mRNA expression) and metabolite analysis. […] As noted previously, existing metabolic databases may be helpful in practicing the methods and systems of the present invention, but many databases include limitations that make their use in data analysis and pathway mapping less than straightforward. […] This caveat to KEGG makes it difficult to pinpoint the correct pathway when attempting to link a gene to a specific pathway. The pathway score indicates how meaningful the mapping is, or how likely it is to be correctly indicative of the pathway involved in the perturbation under examination. The method provides a pathway score based on perturbation levels of genes and/or compounds and the information content of each gene and/or compound in the pathway, i.e., a pathway score indicates the extent to which other pathways are mapped to a gene/compound. For example, imagine that two genes are perturbed in a particular experiment.

Assay [2] has the same test system. Briefly: AF1 yeast metabolite analysis by GC-MS and LC-MS. The note with it: for # Compounds perturbed by treatment: 2×MIC, two hours.
For assay [3] the test system is unchanged. Kind of assay: AF1 combined gene expression and metabolite data (reactions, pathways, cluster analysis). The source says:
The data were then combined to determine the number of reactions showing an enzyme and at least one compound perturbed, and to determine the number of pathways having at least one enzyme and one perturbed compound perturbed. The results of the analysis are represented in Tables 16 and 17, and were difficult to interpret, illustrating that the ability to draw conclusions from compound mapping to pathways is limited when absent additional data. […] A coherent data set was created from data obtained from the four above-described drug compounds. The data were reduced by using principle components analysis and cluster analysis.

As for `C[C@@H]1[C@H](O)[C@@H](C)/C=C/C=C/C=C/C=C/C=C/C=C/C=C/[C@H](O[C@@H]2O[C@H](C)[C@@H](O)[C@H](N)[C@@H]2O)C[C@@H]2O[C@](O)(C[C@@H](O)C[C@@H](O)[C@H](O)CC[C@@H](O)C[C@@H](O)CC(=O)O[C@H]1C)C[C@H](O)[C@H]2C(=O)O` [Amphoteracin B], the entries for the “# Transcripts perturbed by treatment” value in assay [1] (P < 0.05) and in assay [1] (P < 0.1) were 4363 and 4652, respectively. Moreover, the “Number of Pathways Affected by at Least One Gene, # Pathways” value (shortened to “Number of Pathways Affected”) in assay [1] came out at 97. Besides, the “# Compounds perturbed by treatment” value turned out to be 16 in assay [2] (P < 0.05) and 21 in assay [2] (P < 0.1). The “Number of Reactions Having an Enzyme and at Least One Compound Perturbed, # Reactions” value (shortened to “Number … # Reactions”) in assay [3] was 54.

Consider `OC(Cn1cncn1)(Cn1cncn1)c1ccc(F)cc1F` [Fluconazole], for which the “Number of Pathways Affected” value in assay [1] was determined as 79. The “# Compounds perturbed by treatment” value in assay [2] (P < 0.05) is 2. Besides, the “# Compounds perturbed by treatment” value in assay [2] (P < 0.1) worked out at 6. Further, in assay [2] (Platform GC), the “Fold Change: TMS mevalonic acid lactone” value was found to be 0.1434, the “Fold Change: squalene” value came out at 0.1999, the “Fold Change: sugar?” value worked out at 0.4817 and the “Fold Change: tetradecanoic acid” value is listed as 0.07967. Further, in assay [2] (Platform GC), the “Fold Change: threonine2” value turned out to be 0.5053, the “Fold Change: threonine3” value is given as 0.2513, the “Fold Change: tms glutamine3” value was 0.7271 and the “Fold Change: tms lysine4” value is 0.3657. In addition, in assay [2] (Platform GC), the “Fold Change: tms tyrosine2” value turned out to be 0.8643, the “Fold Change: tms tyrosine3” value is 0.3321 and the “Fold Change: valine” value is reported as 0.2727. In addition, in assay [2] (Platform nLC), the “Fold Change, benzoic acid” value is reported as 0; the “Fold Change: retinoic acid” value was determined as 0; the “Fold Change: salicylic/HObenzoic” value turned out to be 0; the “Fold Change: selenoDLmethionine” value is on record as −0.5748. For the same compound, in assay [2] (Platform nLC), the “Fold Change: serine” value is given as 0.3936, the “Fold Change: shikimic acid” value came out at 0, the “Fold Change: sinapinic acid” value stood at 0 and the “Fold Change: sorbitol/mannitol” value amounted to 0.365. Further, in assay [2] (Platform nLC), the “Fold Change: succinic” value is reported as 0.3094, the “Fold Change: sucrose” value is 0.3104, the “Fold Change: sugar-phosphate” value is listed as −0.05306 and the “Fold Change: tetradecanoic acid” value is recorded as 0.5495. Moreover, in assay [2] (Platform nLC), the “Fold Change: threonine/homoserin” value is 0.3257, the “Fold Change: thymine” value turned out to be 0, the “Fold Change: tryptophan” value is 1.649 and the “Fold Change: tyrosine” value is listed as 0.2303. In assay [2] (Platform nLC), the “Fold Change: uracil” value amounted to 1.256, the “Fold Change: uridine” value was 0.3463, the “Fold Change: urocanic acid” value is given as 0 and the “Fold Change: valine” value is reported as 0.3235. Besides, in assay [2] (Platform nLC), the “Fold Change: xanthosineDiH2O” value is 0 and the “Fold Change: zeatin” value worked out at 0. In assay [2] (Platform pLC), the “Fold Change: riboflavin” value is given as 0, the “Fold Change: selenoDLmethionine” value is recorded as −0.6865, the “Fold Change: serine” value amounted to 0.11 and the “Fold Change: sugar-phosphate” value is 0. In assay [2] (Platform pLC), the “Fold Change: thiamine” value is given as 0, the “Fold Change: threonine/homoserin” value stood at 0.1604, the “Fold Change: thymine” value came out at 0 and the “Fold Change: tryptophan” value is reported as 0. Besides, in assay [2] (Platform pLC), the “Fold Change: tyrosine” value was 0.1099, the “Fold Change: uric acid” value was determined as 0, the “Fold Change: urocanic acid” value came out at 0 and the “Fold Change: xanthosine(diH2O)” value is given as 0. In assay [2] (Platform pLC), the “Fold Change: zeatin” value came out at 0. The “Number … # Reactions” value in assay [3] turned out to be 2.

In the case of `CC(=O)N1CCN(c2ccc(OCC3COC(Cn4ccnc4)(c4ccc(Cl)cc4Cl)O3)cc2)CC1` (centres unmarked) [Ketoconazole], in assay [1], the “Number of Pathways Affected” value turned out to be 90. In addition, the “# Compounds perturbed by treatment” value in assay [2] (P < 0.1) was determined as 15. Also, in assay [3], the “Number … # Reactions” value came to 21.

Values taken from patent publication US20040002842A1, “Methods and systems for analyzing complex biological systems” (priority 2001, published 2004).
